Assay results: the supplement of paper PMC10307832

What was measured:
Test in all cases: relative viability (nuclei count vs DMSO), 5 days (fraction); higher = more cells survive
[1] = compound: N#CC[C@H](C1CCCC1)n1cc(-c2ncnc3[nH]ccc23)cn1 [Ruxolitinib] + Cc1nc(Nc2ncc(C(=O)Nc3c(C)cccc3Cl)s2)cc(N2CCN(CCO)CC2)n1 [Dasatinib] (partner 0.075 µM)
Outline: (§1)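 Relative viability divides the nuclei count in treated wells by that in vehicle wells. Lung cancer cell lines were seeded in 1536-well plates, dosed by pin tool the next day, and fixed and stained after 5 days in one step with final 0.05% Triton X-100, 1% formaldehyde and 1 ug/ml Hoechst. Dosing was a single drug or a fixed anchor-drug dose plus five library-drug doses (not always all listed) in √10 steps, and values are medians of duplicate plates imaged at 4×.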

[2] = compound: N#CC[C@H](C1CCCC1)n1cc(-c2ncnc3[nH]ccc23)cn1 [Ruxolitinib] + COc1cc2c(Oc3ccc(NC(=O)C4(C(=O)Nc5ccc(F)cc5)CC4)cc3F)ccnc2cc1OCCCN1CCOCC1 [Foretinib] (partner 0.25 µM)
Outline: as §1

[3] = compound: CS(=O)(=O)c1ccc(C(=O)Nc2ccc(Cl)c(-c3ccccn3)c2)c(Cl)c1 [Vismodegib] + NC(=O)Nc1cc(-c2cccc(F)c2)sc1C(=O)N[C@H]1CCCNC1 [AZD7762] (partner 0.2 µM)
Outline: as §1

[4] = compound: CS(=O)(=O)c1ccc(-c2cnc(N)c(C(=O)Nc3ccccc3)n2)cc1 [VE-821] + Nc1nc2[nH]cc(CCc3ccc(C(=O)N[C@@H](CCC(=O)O)C(=O)O)cc3)c2c(=O)[nH]1 [Pemetrexed] (partner 0.2 µM)
Outline: as §1

LOU-NH91
relative viability ([1]; first compound 0.253 µM): 0.461
relative viability ([1]; first compound 0.8 µM): 0.556
relative viability ([1]; first compound 2.53 µM): 0.496
relative viability ([1]; first compound 8 µM): 0.439
relative viability ([2]; first compound 0.253 µM): 0.968
relative viability ([2]; first compound 0.8 µM): 1.02
relative viability ([2]; first compound 2.53 µM): 0.877
relative viability ([2]; first compound 8 µM): 0.876
relative viability ([3]; first compound 0.08 µM): 0.802
relative viability ([3]; first compound 0.253 µM): 0.752
relative viability ([3]; first compound 0.8 µM): 0.727
relative viability ([3]; first compound 2.53 µM): 0.771
relative viability ([3]; first compound 8 µM): 0.789
relative viability ([4]; first compound 0.08 µM): 0.385
relative viability ([4]; first compound 0.253 µM): 0.355
relative viability ([4]; first compound 0.8 µM): 0.345
relative viability ([4]; first compound 2.53 µM): 0.323
relative viability ([4]; first compound 8 µM): 0.4

HCC-15
relative viability ([1]; first compound 0.08 µM): 0.661
relative viability ([1]; first compound 0.253 µM): 0.492
relative viability ([1]; first compound 0.8 µM): 0.675
relative viability ([1]; first compound 2.53 µM): 0.439
relative viability ([1]; first compound 8 µM): 0.286
relative viability ([2]; first compound 0.08 µM): 1.04
relative viability ([2]; first compound 0.253 µM): 0.995
relative viability ([2]; first compound 0.8 µM): 1.1
relative viability ([2]; first compound 2.53 µM): 0.926
relative viability ([2]; first compound 8 µM): 0.771
relative viability ([3]; first compound 0.08 µM): 1.17
relative viability ([3]; first compound 0.253 µM): 1.14
relative viability ([3]; first compound 0.8 µM): 1.19
relative viability ([3]; first compound 2.53 µM): 1.21
relative viability ([3]; first compound 8 µM): 1.21
relative viability ([4]; first compound 0.08 µM): 0.219
relative viability ([4]; first compound 0.253 µM): 0.23
relative viability ([4]; first compound 0.8 µM): 0.21
relative viability ([4]; first compound 2.53 µM): 0.211
relative viability ([4]; first compound 8 µM): 0.179

A-427
relative viability ([1]; first compound 0.08 µM): 0.74
relative viability ([1]; first compound 0.253 µM): 0.751
relative viability ([1]; first compound 0.8 µM): 0.66
relative viability ([1]; first compound 2.53 µM): 0.441
relative viability ([1]; first compound 8 µM): 0.463
relative viability ([2]; first compound 0.08 µM): 0.992
relative viability ([2]; first compound 0.253 µM): 1.1
relative viability ([2]; first compound 0.8 µM): 1.06
relative viability ([2]; first compound 2.53 µM): 0.918
relative viability ([2]; first compound 8 µM): 0.988
relative viability ([3]; first compound 0.08 µM): 0.739
relative viability ([3]; first compound 0.253 µM): 0.706
relative viability ([3]; first compound 0.8 µM): 0.805
relative viability ([3]; first compound 2.53 µM): 0.619
relative viability ([3]; first compound 8 µM): 0.801
relative viability ([4]; first compound 0.08 µM): 0.997
relative viability ([4]; first compound 0.253 µM): 0.949
relative viability ([4]; first compound 0.8 µM): 0.947
relative viability ([4]; first compound 2.53 µM): 0.998
relative viability ([4]; first compound 8 µM): 0.474

NCI-H2087
relative viability ([1]; first compound 0.08 µM): 0.836
relative viability ([1]; first compound 0.253 µM): 0.661
relative viability ([1]; first compound 0.8 µM): 0.675
relative viability ([1]; first compound 2.53 µM): 0.431
relative viability ([1]; first compound 8 µM): 0.52
relative viability ([2]; first compound 0.08 µM): 1.03
relative viability ([2]; first compound 0.253 µM): 0.983
relative viability ([2]; first compound 0.8 µM): 1.28
relative viability ([2]; first compound 2.53 µM): 0.975
relative viability ([2]; first compound 8 µM): 0.772
relative viability ([3]; first compound 0.08 µM): 1.28
relative viability ([3]; first compound 0.253 µM): 1.14
relative viability ([3]; first compound 0.8 µM): 1.14
relative viability ([3]; first compound 2.53 µM): 1.33
relative viability ([3]; first compound 8 µM): 1.36
relative viability ([4]; first compound 0.08 µM): 0.667
relative viability ([4]; first compound 0.253 µM): 0.634
relative viability ([4]; first compound 0.8 µM): 0.65
relative viability ([4]; first compound 2.53 µM): 0.679
relative viability ([4]; first compound 8 µM): 0.67

LK-2
relative viability ([1]; first compound 0.08 µM): 0.287
relative viability ([1]; first compound 0.253 µM): 0.339
relative viability ([1]; first compound 0.8 µM): 0.332
relative viability ([1]; first compound 2.53 µM): 0.32
relative viability ([1]; first compound 8 µM): 0.349
relative viability ([2]; first compound 0.08 µM): 1.15
relative viability ([2]; first compound 0.253 µM): 1.45
relative viability ([2]; first compound 0.8 µM): 1.46
relative viability ([2]; first compound 2.53 µM): 1.29
relative viability ([2]; first compound 8 µM): 1.34
relative viability ([3]; first compound 0.08 µM): 0.401
relative viability ([3]; first compound 0.253 µM): 0.479
relative viability ([3]; first compound 0.8 µM): 0.419
relative viability ([3]; first compound 2.53 µM): 0.387
relative viability ([3]; first compound 8 µM): 0.447
relative viability ([4]; first compound 0.08 µM): 0.357
relative viability ([4]; first compound 0.253 µM): 0.295
relative viability ([4]; first compound 0.8 µM): 0.299
relative viability ([4]; first compound 2.53 µM): 0.267
relative viability ([4]; first compound 8 µM): 0.262

NCI-H2347
relative viability ([1]; first compound 0.08 µM): 0.295
relative viability ([1]; first compound 0.253 µM): 0.341
relative viability ([1]; first compound 0.8 µM): 0.297
relative viability ([1]; first compound 2.53 µM): 0.29
relative viability ([1]; first compound 8 µM): 0.333
relative viability ([2]; first compound 0.253 µM): 0.84
relative viability ([2]; first compound 0.8 µM): 0.856
relative viability ([2]; first compound 2.53 µM): 0.769
relative viability ([2]; first compound 8 µM): 1.06
relative viability ([3]; first compound 0.08 µM): 0.774
relative viability ([3]; first compound 0.253 µM): 0.718
relative viability ([3]; first compound 0.8 µM): 0.782
relative viability ([3]; first compound 2.53 µM): 0.83
relative viability ([3]; first compound 8 µM): 0.799
relative viability ([4]; first compound 0.08 µM): 0.482
relative viability ([4]; first compound 0.253 µM): 0.45
relative viability ([4]; first compound 0.8 µM): 0.418
relative viability ([4]; first compound 2.53 µM): 0.445
relative viability ([4]; first compound 8 µM): 0.526

NCI-H2126
relative viability ([1]; first compound 0.08 µM): 0.599
relative viability ([1]; first compound 0.253 µM): 0.526
relative viability ([1]; first compound 0.8 µM): 0.715
relative viability ([1]; first compound 2.53 µM): 0.616
relative viability ([1]; first compound 8 µM): 0.453
relative viability ([2]; first compound 0.08 µM): 1.09
relative viability ([2]; first compound 0.253 µM): 1.27
relative viability ([2]; first compound 0.8 µM): 1.2
relative viability ([2]; first compound 2.53 µM): 1.12
relative viability ([2]; first compound 8 µM): 1.16
relative viability ([3]; first compound 0.08 µM): 1.08
relative viability ([3]; first compound 0.253 µM): 0.912
relative viability ([3]; first compound 0.8 µM): 0.978
relative viability ([3]; first compound 2.53 µM): 0.933
relative viability ([3]; first compound 8 µM): 1.03
relative viability ([4]; first compound 0.08 µM): 0.687
relative viability ([4]; first compound 0.253 µM): 0.585
relative viability ([4]; first compound 0.8 µM): 0.693
relative viability ([4]; first compound 2.53 µM): 0.475
relative viability ([4]; first compound 8 µM): 0.31

H3255
relative viability ([1]; first compound 0.08 µM): 0.301
relative viability ([1]; first compound 0.253 µM): 0.402
relative viability ([1]; first compound 0.8 µM): 0.421
relative viability ([1]; first compound 2.53 µM): 0.282
relative viability ([1]; first compound 8 µM): 0.31
relative viability ([2]; first compound 0.08 µM): 0.747
relative viability ([2]; first compound 0.253 µM): 0.91
relative viability ([2]; first compound 0.8 µM): 0.968
relative viability ([2]; first compound 2.53 µM): 0.95
relative viability ([2]; first compound 8 µM): 0.836
relative viability ([3]; first compound 0.08 µM): 0.951
relative viability ([3]; first compound 0.253 µM): 0.886
relative viability ([3]; first compound 0.8 µM): 0.818
relative viability ([3]; first compound 2.53 µM): 0.785
relative viability ([3]; first compound 8 µM): 0.853
relative viability ([4]; first compound 0.08 µM): 0.6
relative viability ([4]; first compound 0.253 µM): 0.583
relative viability ([4]; first compound 0.8 µM): 0.61
relative viability ([4]; first compound 2.53 µM): 0.604
relative viability ([4]; first compound 8 µM): 0.517
